Measured values from PMC11110238, “Synthesis of novel carbazole hydrazine-carbothioamide scaffold as potent antioxidant, anticancer and antimicrobial agents” (BMC Chemistry, 2024).
Converted amounts (≈) assume the structure as drawn. Read-outs that look alike come from different tables or passages of the source.

Key:
Escherichia coli = test: MIC and MBC test, E. coli; format: cell-based; details: Escherichia coli
Protocol: (§1) Using Muller Hinton agar medium, the antibacterial activity was evaluated by using 24 h cultures of Escherichia coli, Staphylococcus aureus, and Candida albicans. E. coli and S. aureus were incubated in 1% Mueller Hinton Broth (MHB) liquid medium at 37 °C for 24 h; C. albicans was incubated in Sabouraud Dextrose Broth (SDB) at 30 °C for 48 h. MIC (Minimum Inhibitory Concentration) and MBC (Minimum Bactericidal Concentration) tests were performed to determine antimicrobial activity. This stage was carried out in a sterile cabinet.
(§2) The density of microorganisms in fresh cultures was adjusted according to the MacFarland 0.5 scale. For that, the microorganisms were centrifuged at 4000 rpm for 20 min. The supernatant was poured off, and the pellet was washed with 1 mL of 0.9% NaCl solution (physiological saline). The centrifugation was then repeated. The pellet was dissolved again with saline solution and adjusted to 0.5 MacFarland. In the experiment performed in a sterile 96-well plate, compound 4o was diluted ½ with DMSO to prepare a stock solution. In the first, 100 µl of medium and 100 µl of compound 4o as initial dilutions. Dilution was performed seven times at a ratio of ½. Then, 5 µl of fresh microorganism cultures prepared as MacFarland 0.5 were inoculated. The control group was prepared as 100 µl medium, 100 µl distilled water, and 5 µl microorganisms. The plates were incubated at 37 °C and 30 °C for 24 h.
(§3) After incubation, 10 µl of the sample was taken, dropped onto the respective media, and incubated for 24 h at appropriate temperatures to clearly distinguish the residues left by the compound 4o and the growth of microorganisms. Mueller Hinton Agar (MHA) was used for E. coli and S. aureus, and Potato Dextrose Agar (PDA) was used for C. albicans. After incubation, MIC and MBC values were determined. The first well with a significant decrease in growth was considered as MIC, and the first well with no growth was considered as MBC [59, 60].

MCF-7 cells [1] = test: Cell cycle analysis by flow cytometry; format: cell-based
Description: The manufacturer protocol (Sigma-Aldrich Mak344 Cell Cycle Analysis Kit) was used to perform cell cycle experiments and analyzed by flow cytometry (Beckman Coulter Cytoflex).

L929 normal cell lines = test: MTT cell viability, L929 normal cell line; format: cell-based; details: Mus musculus, 48 h
Protocol: (§4) Cells (MCF-7 and L929) were incubated in 75 cm^2 sterile flasks with 10% FBS, 100 U/mL penicillin, and 100 µg/mL streptomycin. The cells were grown at 37 ^○C in 5% CO2, and MTT was used to screen the viability of the cells. Cells were seeded at a density of 10^4 cells per well. The cells were then cultured for 24 h in 100 µl of DMEM complete medium. After pretreatment with different concentrations of the compounds for 48 h, 10 µl of 5 mg/mL MTT solution was added to each well and incubated for 4 h at 37 ^○C, and 100 µl of DMSO was used in each well to dissolve the blue formazan crystals. Then, the absorbance was measured at 570 nm. The cell viability percentages of compound 4o against MCF-7 cancer cell lines and L929 normal cell lines were presented in Fig. 2 in comparison with doxorubicin anticancer agent.

MCF-7 cell line = test: MTT cell viability, MCF-7 cancer cell line; format: cell-based
Protocol: MCF-7 cancer cell lines were cultured at Dulbecco’s Modified Eagle Medium High Glucose (DMEM) (EuroClone, Via Figino, Italy); fetal bovine serum (FBS) and MTT (3-(4,5-Dimethylthiazol-2-yl)-2,5-Diphenyl Tetrazolium Bromide) were provided by Sigma-Aldrich (Darmstadt, Germany); ApopNexin Annexin-V-FITC with PI Apoptosis Kit was obtained from Merck (Darmstadt, Germany); Total RNA Isolation Kit was provided by Analytic Jena (Jena, Germany), SensiFast cDNA Synthesis Kit was provided by Meridian Bioscience (Cincinati, USA), SybrGreen Master Mix was obtained from EuroClone (Via Figino, Italy).
as §4

[2] = DPPH radical scavenging assay; format: biochemical; details: 30 min, 517 nm
Protocol: To estimate the Carbazole derivatives' antioxidant potential, a solution of each compound (1 mM/mL) in methanol was serially diluted with methanol to obtain a concentration of 1, 2, 5, 10, 20, 50, and 100 µM/mL. Then, DPPH (2,2-diphenyl-1-picrylhydrazyl) reagent (Sigma, USA) was dissolved in 0.002% w/v methanol and mixed with the previously prepared working concentrations in a 1:1 ratio. The same procedures were repeated for Trolox (Sigma-Aldrich, Denmark), which was used as a positive control. All of the solutions were kept in the dark chamber for 30 min at an ordinary temperature. Then, their absorbance values were measured at a wavelength of 517 nm utilizing a UV–visible spectrophotometer. The DPPH inhibition potentials by Carbazole derivatives and Trolox were determined employing the following equation: DPPH inhibition(\%)=abs(blank)-abs(sample)/abs(blank)∗100\% where absblank is the blank absorbance and abssample is the absorbance of the samples [58]. The antioxidant half-maximal inhibitory concentration (IC50) of the synthesized carbazole derivatives and Trolox were assessed by using an online tool “Quest Graph™ IC50 Calculator.” AAT Bioquest, Inc., 25 May. 2023, https://www.aatbio.com/tools/ic50-calculator.

Staphylococcus aureus = test: MIC and MBC test, S. aureus; format: cell-based; details: Staphylococcus aureus
Protocol: as §1, §2, §3

Candida albicans = test: MIC and MBC test, C. albicans; format: cell-based
Protocol: as §1, §2, §3

MCF-7 cells [3] = test: Annexin-V-FITC/PI apoptosis assay by flow cytometry; format: cell-based
Protocol: FITC Annexin-V apoptosis detection kit with PI, ApopNexinTM FITC (APT750, Merk, Germany) was used for apoptosis assay. MCF-7 cells were seeded into a 6-well plate (1 × 10^6 cells per well). Then, the cells were incubated with the compounds at the cytotoxic concentration by employing a cell viability assay. Apoptotic cells were cultured with the compounds, the medium was removed after incubation, and the cells were washed twice with 5 mL of pre-chilled phosphate-buffered saline. Cells washed with PBS were lifted with Trypsin–EDTA and centrifuged at 400 rpm for 5 min. The resulting cells were each treated with 1 mL of cold 1-X Binding Buffer (Sigma Aldrich, USA). Then, 200 μL of the mixture was taken and placed in a flow cytometry tube, and the other part containing cells was kept on ice. First, 3 µl of ApopNexinTM FITC and 2 µl of 100X propidium iodide (PI) (P4170, Sigma Aldrich, USA) were added to the solution taken into the sample tube and mixed. The resulting mixture was incubated for 15 min in the dark at room temperature. At the end of the incubation, the samples were measured in flow cytometry (Beckman Coulter Cytoflex) and data were obtained.

HeLa cancer cell lines = tested on: HeLa cancer cell lines; set-up: method as in PMID 37328860; details: previous preliminary work; read-out: anticancer IC50 HeLa; cited from earlier work
[4] = set-up: method as in PMID 37328860; details: previous preliminary work; read-out: Antioxidant IC50 against DPPH; cited from earlier work
MCF-7 cancer cell lines = tested on: MCF-7 cancer cell lines; set-up: method as in PMID 37328860; details: previous preliminary work; read-out: anticancer IC50 MCF-7; cited from earlier work

SMILES | MBC (Escherichia coli; read-out: MBC) | MIC (Escherichia coli; read-out: MIC) | cell cycle arrest (MCF-7 cells [1]) | IC50 (L929 normal cell lines) | IC50 (MCF-7 cell line; Homo sapiens, MCF7, MTT, 48 h, read-out: IC50 values Carbazole Derivatives Effect on MCF-7 Cell Line) | selective index (SI) (MCF-7 cell line; L929 vs MCF-7) | IC50 [2] | MIC (Staphylococcus aureus) | MBC (Staphylococcus aureus; read-out: MBC) | MBC (Candida albicans) | MIC (Candida albicans) | induction of apoptosis (MCF-7 cells [3]; MCF-7) | necrosis cell population (MCF-7 cells [3]; MCF-7, cytotoxic concentration) | post-apoptotic cell population (MCF-7 cells [3]; MCF-7, cytotoxic concentration) | pre-apoptotic cell population (MCF-7 cells [3]; MCF-7, cytotoxic concentration) | viable cell population (MCF-7 cells [3]; MCF-7, cytotoxic concentration) | total dead cells (MCF-7 cells [3]; MCF-7, sum of pre-apoptotic, post-apoptotic and necrosis) | IC50 (HeLa cancer cell lines) | IC50 [4] | IC50 (MCF-7 cancer cell lines)
O=C(Cn1c2ccccc2c2ccccc21)NNC(=S)NC(=O)c1ccccc1 [Compound 4o, N-(2-(2-(9H-carbazol-9-yl)acetyl)hydrazine-1-carbonothioyl)benzamide] | 1.56 µM (≈ 0.628 µg/mL) | 1.56 µM (≈ 0.628 µg/mL) | cell cycle arrest in the MCF-7 cell line in the G2/M phase | 37.8 µM | 2.02 ± 0.04 µM | 18.70 | 158 ± 2.54 µM | 1.56 µM (≈ 0.628 µg/mL) | 1.56 µM (≈ 0.628 µg/mL) | 0.39 µM (≈ 0.157 µg/mL) | 0.39 µM (≈ 0.157 µg/mL) | drives MCF-7 cells to apoptosis | 3.69% | 4.33% | 8.20% | 83.78% | 16.22% | – | – | –
O=C(Cn1c2ccccc2c2ccccc21)N/N=C1\SCC(=O)N1c1ccc(Cl)cc1 [St.2] | – | – | – | – | – | – | – | – | – | – | – | – | – | – | – | – | – | 7.59 µM | 5.15 µM | 18.4 µM
O=C(c1ccc(F)cc1)n1nc(Cn2c3ccccc3c3ccccc32)oc1=O [St.3] | – | – | – | – | – | – | – | – | – | – | – | – | – | – | – | – | – | 17.2 µM | – | 6.44 µM
